Where two headings read alike, the source gives them in different places.

In general, melting point refers to the temperature of the solid-liquid transition.

The test system of data set [1] is Puccinia triticina; synonym: Puccinia recondita f. sp. tritici. Kind of data set: Fungicidal activity: wheat brown rust (PUCCRT), wheat seedlings. The data set is classed as in vivo. In short, it runs like this:
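Wheat (Yuma) seedlings at first-leaf stage, inoculated with Puccinia triticina spores before or after treatment, held overnight in dark dew room at 22° C, 100% RH, then greenhouse at 24° C. Acetone solutions diluted with nine volumes water containing 110 ppm Triton X-100, sprayed to run-off. Percent disease control derived from severity (0–100%) relative to untreated plants.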

Data set [2] has as its system Mycosphaerella graminicola; anamorph: Septoria tritici. The experiment in a line: Fungicidal activity: leaf blotch of wheat (SEPTTR), wheat seedlings. The data set is classed as in vivo. Conditions: Zymoseptoria tritici. The gist of the method:
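Compounds in acetone were diluted with nine volumes of water containing 110 ppm Triton X-100 and sprayed to run-off on Yuma wheat seedlings at first-leaf stage. Septoria tritici spores were inoculated before or after treatment, followed by dew chambers at 100% RH and 20 °C, then greenhouse at 20 °C. Severity (0–100%) was scored once untreated plants were fully diseased; control was calculated relative to untreated plants.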

Data set [3] deals with Puccinia triticina; synonym: Puccinia recondita f. sp. tritici. The experiment in a line: Fungicide mobility (dropline mobility test): wheat brown rust (PUCCRT). Particulars: 1 ug/leaf. The data set is classed as in vivo. The gist of the method:
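A 2 μl drop of formulated compound (EC blank, 110 ppm Triton X-100 water) was applied to a line 5 cm from the tip of primary leaves of "Yuma" wheat seedlings, 6 replicates. Inoculation with PUCCRT was done 1 day after or 3 days before application. Once disease was fully expressed on controls, the acropetal disease-free zone was measured as percent of line-to-tip distance.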

For the next data set, the system named is Uncinula necator. Kind of data set: Fungicidal activity: grape powdery mildew (UNCINE). The data set is classed as in vivo. Conditions: Erysiphe necator, 24 h, 1 Day Protectant, read-out: Disease Control UNCINE 1 DP. How it is done: Technical grades of materials were dissolved in acetone, which were then mixed with nine volumes of water containing 110 ppm Triton X-100. The fungicide solutions were applied onto wheat seedlings using an automated booth sprayer to run-off. All sprayed plants were allowed to air dry prior to further handling. Wheat plants (variety Yuma) were grown from seed in a greenhouse in 50% mineral soil/50% soil-less Metro mix until the first leaf was fully emerged, with 7-10 seedlings per pot. These plants were inoculated with an aqueous spore suspension of Septoria tritici either prior to or after fungicide treatments. After inoculation the plants were kept in 100% relative humidity (one day in a dark dew chamber followed by two to three days in a lighted dew chamber at 20° C.) to permit spores to germinate and infect the leaf. The plants were then transferred to a greenhouse set at 20° C. for disease to develop. When disease symptoms were fully expressed on the 1st leaves of untreated plants, infection levels were assessed on a scale of 0 to 100 percent disease severity. Percent disease control was calculated using the ratio of disease severity on treated plants relative to untreated plants. Evaluation of Fungicidal Activity: Grape Powdery Mildew (Uncinula necator; Bayer Code […]) Grape seedlings (variety Carignane) were grown in soil-less Metro mix, with one plant per pot, and used in the test when approximately one month old. Plants were inoculated 24 hr after fungicide treatment by shaking spores from infected leaves over test plants. Plants were maintained in a greenhouse set at 20° C. until disease was fully developed. Fungicide formulation, application and disease assessment on the sprayed leaves followed the procedures as described in the Example A.

A further data set has as its system Venturia inaequalis. Kind of data set: Fungicidal activity: apple scab (VENTIN). The data set is classed as in vivo. Conditions: 24 h, 1 Day Protectant, read-out: Disease Control VENTIN 1 DP. How it is done:
Technical grades of materials were dissolved in acetone, which were then mixed with nine volumes of water containing 110 ppm Triton X-100. The fungicide solutions were applied onto wheat seedlings using an automated booth sprayer to run-off. All sprayed plants were allowed to air dry prior to further handling. Wheat plants (variety Yuma) were grown from seed in a greenhouse in 50% mineral soil/50% soil-less Metro mix until the first leaf was fully emerged, with 7-10 seedlings per pot. These plants were inoculated with an aqueous spore suspension of Septoria tritici either prior to or after fungicide treatments. After inoculation the plants were kept in 100% relative humidity (one day in a dark dew chamber followed by two to three days in a lighted dew chamber at 20° C.) to permit spores to germinate and infect the leaf. The plants were then transferred to a greenhouse set at 20° C. for disease to develop. When disease symptoms were fully expressed on the 1st leaves of untreated plants, infection levels were assessed on a scale of 0 to 100 percent disease severity. Percent disease control was calculated using the ratio of disease severity on treated plants relative to untreated plants. Evaluation of Fungicidal Activity: Apple Scab (Venturia inaequalis; Bayer Code […]) Apple seedlings (variety McIntosh) were grown in soil-less Metro mix, with one plant per pot. Seedlings with two expanding young leaves at the top (older leaves at bottom of the plants were trimmed) were used in the test. Plants were inoculated with a spore suspension of Venturia inaequalis 24 hr after fungicide treatment and kept in a 22° C. dew chamber with 100% RH for 48 hr, and then moved to a greenhouse set at 20° C. for disease to develop. Fungicide formulation, application and disease assessment on the sprayed leaves followed the procedures as described in the Example A.

Data set [4] deals with Magnaporthe grisea; anamorph: Pyricularia oryzae. Kind of data set: whole plant or invertebrate. The data set is classed as in vivo. Particulars: 24 h, read-out: Disease Control PYRIOR 1 DP.
The mark [5] stands for this setting: 24 h, 100 ppm, 1 Day Protectant, wheat, read-out: Disease Control PUCCRT 1DP.
Where [6] appears, read: 72 h, 100 ppm, 3 Day Curative, wheat, read-out: Disease Control PUCCRT 3DC.
Where [7] appears, read: 24 h, 100 ppm, 1 Day Protectant, wheat, read-out: Disease Control SEPTTR 1DP.
Setting [8] is: 72 h, 100 ppm, 3 Day Curative, wheat, read-out: Disease Control SEPTTR 3DC.
[9] abbreviates: 24 h, 1 Day Protectant Mobility, read-out: Dropline Mobility Test PUCCRT 1DPM.
The mark [10] stands for this setting: 72 h, 3 Day Curative Mobility, read-out: Dropline Mobility Test PUCCRT 3DCM.

With `COc1ccnc(C(=O)N[C@H]2COC[C@H](Oc3ccccc3)[C@@H](OCC(C)C)[C@H](C)OC2=O)c1O` [Compound 83], the melting point lay in the range of 112 to 113 °C. In data set [1] (setting [5]), the pest or weed control at 100 ppm lay within 80 to 100%. Moreover, in data set [1] (setting [6]), the pest or weed control at 100 ppm is 80 to 100%. Besides, the pest or weed control at 100 ppm in data set [2] (setting [7]) is 80 to 100%. Further, the pest or weed control at 100 ppm in data set [2] (setting [8]) lay within 80 to 100%. The pest or weed control at 1 µg/leaf in data set [3] (setting [9]) lay within 80 to 100%. Also, in data set [3] (setting [10]), the pest or weed control at 1 µg/leaf fell in the range of 0 to 80%.
`CCCCO[C@H]1[C@H](C)OC(=O)[C@@H](NC(=O)c2nccc(OC)c2OCOC(C)=O)COC[C@@H]1OCc1ccccc1` [Compound 34]: the pest or weed control at 100 ppm (in the data set on Uncinula necator; in data set [1] (setting [5]); in data set [1] (setting [6]); in data set [2] (setting [7]); in data set [2] (setting [8]); with Venturia inaequalis) was 80 to 100% in each case. For the same compound, the results for the pest or weed control at 1 µg/leaf in data set [3] (setting [9]) and in data set [3] (setting [10]) were 0 to 80% and 80 to 100%, respectively.
On to `COc1ccnc(C(=O)N[C@H]2COC[C@H](OCc3ccccc3)[C@@H](OCc3ccccc3)COC2=O)c1OCOC(=O)C(C)C` [Compound 6], for which the pest or weed control at 100 ppm was in the range of 0 to 80% with Uncinula necator; 80 to 100% in data set [1] (setting [5]); 0 to 80% in data set [2] (setting [7]); 0 to 80% in data set [2] (setting [8]); 0 to 80% in the data set with Venturia inaequalis.
Regarding `COc1ccnc(C(=O)N[C@H]2COC[C@H](OC3CCCCC3)[C@@H](OCC(C)C)[C@H](C)OC2=O)c1O` [Compound 73], the melting point is 122 to 125 °C. The pest or weed control at 100 ppm in data set [1] (setting [5]) lay within 80 to 100%. For the same compound, the pest or weed control at 100 ppm in data set [1] (setting [6]) fell in the range of 80 to 100%. Moreover, the pest or weed control at 100 ppm in data set [2] (setting [7]) lay within 80 to 100%. Further, the pest or weed control at 100 ppm in data set [2] (setting [8]) was in the range of 80 to 100%. Further, the pest or weed control at 1 µg/leaf in data set [3] (setting [9]) lay in the range of 0 to 80%. Further, the pest or weed control at 1 µg/leaf in data set [3] (setting [10]) is 0 to 80%.
Regarding `CCCCO[C@H]1COC[C@H](NC(=O)c2nccc(OC)c2OCOC(C)=O)C(=O)O[C@@H](C)[C@@H]1OCc1ccccc1` [Compound 35], the pest or weed control at 100 ppm in the data set with Uncinula necator lay within 0 to 80%; in data set [1] (setting [5]), 80 to 100%; in data set [1] (setting [6]) it was 80 to 100%; in data set [2] (setting [7]), 80 to 100%; in data set [2] (setting [8]) it was 80 to 100%; in the data set with Venturia inaequalis, 0 to 80%.
As for `COc1ccnc(C(=O)N[C@H]2COC[C@H](OCC(C)C)[C@@H](OCC(C)C)[C@H](C)OC2=O)c1O` [Compound 1, N-((3S,7S,8S,9S)-7,8-diisobutoxy-9-methyl-2-oxo-1,5-dioxonan-3-yl)-3-hydroxy-4-methoxypicolinamide], the melting point was in the range of 111 to 113 °C. Besides, the pest or weed control at 100 ppm in data set [1] (setting [5]) was in the range of 80 to 100%. Moreover, in data set [1] (setting [6]), the pest or weed control at 100 ppm lay in the range of 80 to 100%. Moreover, in data set [2] (setting [7]), the pest or weed control at 100 ppm fell in the range of 80 to 100%. The pest or weed control at 100 ppm in data set [2] (setting [8]) lay in the range of 80 to 100%. Moreover, in data set [3] (setting [9]), the pest or weed control at 1 µg/leaf was in the range of 80 to 100%. The pest or weed control at 1 µg/leaf in data set [3] (setting [10]) was 80 to 100%.
Consider `COc1ccnc(C(=O)N[C@H]2COC[C@H](O)[C@@H](OCC(C)C)[C@H](C)OC2=O)c1O` [Compound 72, 3-hydroxy-N-((3S,7S,8R,9S)-7-hydroxy-8-isobutoxy-9-methyl-2-oxo-1,5-dioxonan-3-yl)-4-methoxypicolinamide], for which the melting point was 121 to 124 °C. Moreover, the pest or weed control at 100 ppm in data set [1] (setting [5]) is 0 to 80%. Further, the pest or weed control at 100 ppm in data set [1] (setting [6]) is 0 to 80%. The pest or weed control at 100 ppm in data set [2] (setting [7]) fell in the range of 0 to 80%. The pest or weed control at 100 ppm in data set [2] (setting [8]) was in the range of 0 to 80%. Further, the pest or weed control at 1 µg/leaf in data set [3] (setting [9]) lay in the range of 0 to 80%. Besides, in data set [3] (setting [10]), the pest or weed control at 1 µg/leaf lay in the range of 0 to 80%.
For `CCCCO[C@H]1COC[C@H](NC(=O)c2nccc(OC)c2OCOC(C)=O)C(=O)O[C@@H](C)[C@@H]1OCCC` [Compound 45], the pest or weed control at 100 ppm with Uncinula necator was in the range of 80 to 100%; in data set [1] (setting [5]) it was 80 to 100%; in data set [1] (setting [6]), 80 to 100%; in data set [2] (setting [7]), 80 to 100%; in data set [2] (setting [8]), 80 to 100%; in the data set with Venturia inaequalis it was 0 to 80%.
On to `CCCCO[C@H]1COC[C@H](NC(=O)c2nccc(OC)c2OCOC(C)=O)C(=O)O[C@@H](C)[C@@H]1OC(=O)C(C)C` [Compound 47], for which the pest or weed control at 100 ppm with Uncinula necator lay in the range of 0 to 80%; in data set [1] (setting [5]), 80 to 100%; in data set [1] (setting [6]) it was 80 to 100%; in data set [2] (setting [7]), 80 to 100%; in data set [2] (setting [8]) it was 80 to 100%; in the data set with Venturia inaequalis, 80 to 100%. In data set [4], the pest or weed control at 100 ppm fell in the range of 80 to 100%.
`COc1ccnc(C(=O)N[C@H]2COC[C@H](OCC(C)C)[C@@H](Oc3ccccc3)[C@H](C)OC2=O)c1O` [Compound 82, 3-hydroxy-N-((3S,7S,8S,9S)-7-isobutoxy-9-methyl-2-oxo-8-phenoxy-1,5-dioxonan-3-yl)-4-methoxypicolinamide] registered a melting point of 117 to 119 °C. In addition, the pest or weed control at 100 ppm in data set [1] (24 h, read-out: Disease Control PUCCRT 1DP) was in the range of 80 to 100%. For the same compound, the pest or weed control at 100 ppm in data set [1] (72 h, read-out: Disease Control PUCCRT 3DC) fell in the range of 80 to 100%. Moreover, in data set [2] (24 h, read-out: Disease Control SEPTTR 1DP), the pest or weed control at 100 ppm fell in the range of 80 to 100%. Besides, in data set [2] (72 h, read-out: Disease Control SEPTTR 3DC), the pest or weed control at 100 ppm fell in the range of 0 to 80%. For the same compound, in data set [3] (setting [9]), the pest or weed control at 1 µg/leaf lay in the range of 80 to 100%. For the same compound, the pest or weed control at 1 µg/leaf in data set [3] (setting [10]) was in the range of 0 to 80%.

(Values after patent publication US9144239B2, “Macrocyclic picolinamides as fungicides” (DOW AGROSCIENCES LLC, priority 2012, dated 2015).)
